# Data: US8183271B2, “Tetrazole derivatives and their use for the treatment of cardiovascular diseases” (Bayer Intellectual Property GmbH, priority 2005, dated 2012)
# Legend:
# [1] = target: T1, Heme-containing sGC (recombinant soluble guanylate cyclase) (Rattus norvegicus, UniProt P20595); test: Stimulation of recombinant soluble guanylate cyclase (sGC) in vitro, heme-containing enzyme; format: biochemical
# T1 construct: made in house
# T1 sequence (P20595 1-619): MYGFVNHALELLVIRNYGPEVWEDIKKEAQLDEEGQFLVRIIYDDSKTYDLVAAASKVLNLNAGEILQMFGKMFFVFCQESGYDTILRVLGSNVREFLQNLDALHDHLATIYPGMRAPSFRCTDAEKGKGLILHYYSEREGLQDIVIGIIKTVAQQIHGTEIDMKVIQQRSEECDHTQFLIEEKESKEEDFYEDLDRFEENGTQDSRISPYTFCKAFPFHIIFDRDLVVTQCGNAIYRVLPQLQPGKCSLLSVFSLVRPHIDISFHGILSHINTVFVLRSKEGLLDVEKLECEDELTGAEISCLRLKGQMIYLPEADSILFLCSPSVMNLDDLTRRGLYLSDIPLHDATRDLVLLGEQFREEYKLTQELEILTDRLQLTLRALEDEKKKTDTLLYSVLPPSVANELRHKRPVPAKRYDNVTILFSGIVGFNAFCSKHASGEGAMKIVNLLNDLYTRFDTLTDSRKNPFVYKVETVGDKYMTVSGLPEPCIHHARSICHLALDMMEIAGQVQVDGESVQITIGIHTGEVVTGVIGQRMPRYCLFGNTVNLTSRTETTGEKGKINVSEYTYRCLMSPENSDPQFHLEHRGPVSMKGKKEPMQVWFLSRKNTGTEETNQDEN
# T1 sequence (P19686 1-690 partner): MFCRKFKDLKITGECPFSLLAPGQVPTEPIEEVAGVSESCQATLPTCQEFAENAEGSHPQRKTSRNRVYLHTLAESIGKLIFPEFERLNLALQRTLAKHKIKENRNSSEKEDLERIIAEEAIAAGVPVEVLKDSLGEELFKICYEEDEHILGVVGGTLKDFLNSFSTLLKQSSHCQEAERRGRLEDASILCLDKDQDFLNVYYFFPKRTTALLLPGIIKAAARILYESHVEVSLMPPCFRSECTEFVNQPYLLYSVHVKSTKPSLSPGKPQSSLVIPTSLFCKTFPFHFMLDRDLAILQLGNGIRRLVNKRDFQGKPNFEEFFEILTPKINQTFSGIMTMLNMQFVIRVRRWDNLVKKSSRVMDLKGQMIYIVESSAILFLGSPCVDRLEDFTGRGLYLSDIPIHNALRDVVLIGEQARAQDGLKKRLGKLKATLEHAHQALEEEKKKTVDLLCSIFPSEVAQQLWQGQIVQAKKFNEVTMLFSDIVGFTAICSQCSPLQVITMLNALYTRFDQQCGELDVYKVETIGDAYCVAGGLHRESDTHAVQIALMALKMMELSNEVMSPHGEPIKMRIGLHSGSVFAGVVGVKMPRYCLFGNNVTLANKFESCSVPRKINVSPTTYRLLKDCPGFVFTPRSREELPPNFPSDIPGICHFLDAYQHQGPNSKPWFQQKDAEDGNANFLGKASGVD
# Text: Hoenicka, E. M. Becker, H. Apeler, T. Sirichoke, H. Schroeder, R. Gerzer and J.-P. Stasch, “Purified soluble guanylyl cyclase expressed in a baculovirus/Sf9 system: Stimulation by YC-1, nitric oxide, and carbon oxide”, J. Mol. Med. 77 (1999), 14-23. The heme-free guanylate cyclase is obtained by adding Tween 20 to the sample buffer (0.5% in the final concentration).
# The activation of sGC by a test substance is reported as n-fold stimulation of the basal activity.
# [2] = test system: spontaneously hypertensive rats (SH rats); test: Radiotelemetric measurement of blood pressure and heart rate on conscious SH rats; format: in vivo; settings: oral administration of 10 mg/kg
# Procedure: A commercially available telemetry system from Data Sciences International DSI, USA, is employed for the measurements on conscious SH rats described below.
# The system consists of 3 main components: (1) implantable transmitter, (2) receiver which is linked via a multiplexer to a (3) data acquisition computer. The telemetry system makes it possible to record continuously the blood pressure and heart rate on conscious animals in their usual habitat.
# The investigations are carried out on adult female spontaneously hypertensive rats (SH rats) with a body weight of >200 g. After transmitter implantation, the experimental animals are housed singly in type 3 Makrolon cages. They have free access to standard feed and water. […]
# In the standard procedure, the following are measured for 10-second periods in each case: (1) systolic blood pressure (SBP), (2) diastolic blood pressure (DBP), (3) mean arterial pressure (MAP) and (4) heart rate (HR).
# Measurement acquisition is repeated under computer control at 5-minute intervals. The source data obtained as absolute value are corrected in the diagram with the currently measured barometric pressure and stored in individual data. […]
# The test substances are administered at 9.00 h on the day of the experiment. Following the administration, the parameters described above are measured over 24 hours. […]
compound,measurement,setting,value
"CC(C)(C)c1ccc(COc2ccccc2/C=C/C(CCc2ccc(-c3nnn[nH]3)cc2)Cc2ccc(C(=O)O)cc2)cc1 (single isomer, unassigned) [Example 6, 4-((3E)-4-{2-[(4-tert-Butylbenzyl)oxy]phenyl}-2-{2-[4-(1H-tetrazol-5-yl)phenyl]ethyl}but-3-en-1-yl)benzoic acid]",Stimulation (n-fold) Heme-containing sGC Basal,[1]; 0.001 μM Example 6,1.9 n-fold
same,Stimulation (n-fold) Heme-containing sGC +0.1 μM DEA/NO,[1]; 0.001 μM Example 6 + 0.1 μM DEA/NO,62.0 n-fold
same,Stimulation (n-fold) Heme-containing sGC +10 μM ODQ,[1]; 0.001 μM Example 6 + 10 μM ODQ,4.8 n-fold
same,Stimulation (n-fold) Heme-containing sGC Basal,[1]; 0.01 μM Example 6,5.1 n-fold
same,Stimulation (n-fold) Heme-containing sGC +0.1 μM DEA/NO,[1]; 0.01 μM Example 6 + 0.1 μM DEA/NO,66.0 n-fold
same,Stimulation (n-fold) Heme-containing sGC +10 μM ODQ,[1]; 0.01 μM Example 6 + 10 μM ODQ,25.7 n-fold
same,Stimulation (n-fold) Heme-containing sGC Basal,[1]; 0.1 μM Example 6,20.2 n-fold
same,Stimulation (n-fold) Heme-containing sGC +0.1 μM DEA/NO,[1]; 0.1 μM Example 6 + 0.1 μM DEA/NO,80.0 n-fold
same,Stimulation (n-fold) Heme-containing sGC +10 μM ODQ,[1]; 0.1 μM Example 6 + 10 μM ODQ,102.7 n-fold
same,Stimulation (n-fold) Heme-containing sGC Basal,[1]; 1 μM Example 6,29.5 n-fold
same,Stimulation (n-fold) Heme-containing sGC +0.1 μM DEA/NO,[1]; 1 μM Example 6 + 0.1 μM DEA/NO,96.2 n-fold
same,Stimulation (n-fold) Heme-containing sGC +10 μM ODQ,[1]; 1 μM Example 6 + 10 μM ODQ,125.8 n-fold
same,Stimulation (n-fold) Heme-containing sGC Basal,[1]; 10 μM Example 6,42.1 n-fold
same,Stimulation (n-fold) Heme-containing sGC +0.1 μM DEA/NO,[1]; 10 μM Example 6 + 0.1 μM DEA/NO,99.9 n-fold
same,Stimulation (n-fold) Heme-containing sGC +10 μM ODQ,[1]; 10 μM Example 6 + 10 μM ODQ,135.0 n-fold
same,Effect of combination with the NO donor DEA/NO on sGC stimulation,[1]; combination of Example 6 and DEA/NO,no synergistic effect
same,Effect of the heme-dependent sGC inhibitor ODQ on sGC activation,"[1]; with ODQ, effect in fact increased",not blocked
same,Period of blood pressure reduction,[2],11 h
same,Reduction in blood pressure,[2],marked reduction in blood pressure
